Source: patent US20230056360A1, “BLOOD-BRAIN-BARRIER SYSTEMS” (priority 2020, published 2023)
“Also recorded” adds a separate entry of the source.

Tested on: iBMECs
Test: blood-to-brain permeability of fluorescent molecules across iBMEC monolayers on transwells, monoculture or brain region-specific NVUs
Details: iBMECs alone or co-cultured over primary rat neural cultures (cortex, striatum, hippocampus, cerebellum, spinal cord); one-way ANOVA, Tukey; result in words
Method: In order to obtain region-specific primary neural cultures, E18 rat embryos were extracted from a pregnant female. Embryos were dissected and several regions of the CNS were separated including cortex, striatum, hippocampus, cerebellum and spinal cord. The regions were enzymatically dissociated into single cells before seeded pre-coated MEA plates and petri dishes, in which they were cultured in Neurobasal medium (Sigma) for two weeks. In order to validate the various primary cell cultures, the cells were stained for the neuronal marker βIII-tubulin and the glial marker GFAP (FIG. 2).
iPSCs were differentiated into iBMECs as previously described. On Day 8 of differentiation, cells were enzymatically dissociated into single cell suspensions and seeded on precoated transwell inserts. 24 hours post seeding, iBMEC inserts were placed on top of primary neural cultures derived from the different CNS regions (FIG. 3) where they were cultured for three additional days.
Fluorescence was measured using a plate reader and calculated into concentrations using a calibration curve with known concentrations. Next, the inventors plotted the chart and extracted the slope for each transwell. Slopes from empty transwells were subtracted from the obtained value and the results were used to calculate the permeability, expressed as 10-5 cm/min.

SMILES | differences in permeability between iBMEC monoculture and NVUs of different brain regions
O=[N+]([O-])c1ccc(N[C@H]2C(O)O[C@H](CO)[C@@H](O)[C@@H]2O)c2nonc12 (stereo partly drawn) [2-NDBG, 2-[N-(7-nitrobenz-2-oxa-1,3-diazol-4-yl)amino]-2-deoxy-D-glucose] | not different between the NVUs
O=C([O-])c1ccccc1-c1c2ccc(=O)cc-2oc2cc([O-])ccc12.[Na+].[Na+] [sodium fluorescein] | significantly more permeable in the monoculture compared to the NVUs of the cortex, cerebellum, striatum and hippocampus; also recorded: significance differences in permeability were also observed between spinal cord and other NVUs
